Earlier results in patent US11839654B2, “Combination therapy” (Eli Lilly and Company, priority 2018, dated 2023).

Tests used:
[1] = tested on: JNPL3 tau mouse model; conditions: Yuzwa et al. 2012; cited from earlier work
[2] = tested on: Tg4510 tau mouse model; conditions: Graham et al. 2014; cited from earlier work

In the case of `CCN=C1N[C@@H]2[C@@H](O)[C@H](O)[C@@H](CO)O[C@@H]2S1` [Thiamet-G], the “effect on motor neuron loss” value [1] is given as “slowing motor neuron loss” and the “effect on tau pathology and dystrophic neurites” value [2] is given as “reduction in tau pathology and dystrophic neurites”.
